Assay: Inhibition of P-gp in human K562/A02 cells over expressing P-gp assessed as reversal of multi-drug resistance by measuring ADR IC50 measured after 72 hrs by CCK-8 assay

IC50 | Compound
35 nM | COc1ccc(C(=O)Nc2ccccc2/N=N/c2ccc(CCN3CCc4cc(OC)c(OC)cc4C3)cc2)cc1OC
1600 nM | COc1cc2c(cc1OC)CN(CCc1ccc(/N=N/c3ccccc3NC(=O)c3ccc(Cl)c(Cl)c3)cc1)CC2
168 nM | COc1cc2c(cc1OC)CN(CCc1ccc(/N=N/c3ccccc3NC(=O)c3ccc(C)c(C)c3)cc1)CC2
108 nM | COc1cc2c(cc1OC)CN(CCc1ccc(/N=N/c3ccccc3NC(=O)c3ccc(F)c(F)c3)cc1)CC2
1290 nM | COc1cc2c(cc1OC)CN(CCc1ccc(/N=N/c3ccccc3NC(=O)c3cc(OC)c(OC)c(OC)c3)cc1)CC2
70 nM | COc1cc2c(cc1OC)CN(CCc1ccc(/N=N/c3ccccc3NC(=O)c3ccccc3)cc1)CC2
68 nM | COc1cccc(C(=O)Nc2ccccc2/N=N/c2ccc(CCN3CCc4cc(OC)c(OC)cc4C3)cc2)c1
88 nM | COc1ccc(C(=O)Nc2ccccc2/N=N/c2ccc(CCN3CCc4cc(OC)c(OC)cc4C3)cc2)cc1
15 nM | COc1cc2c(cc1OC)CN(CCc1ccc(/N=N/c3ccccc3NC(=O)c3ccccc3OC)cc1)CC2
44 nM | COc1cc2c(cc1OC)CN(CCc1ccc(/N=N/c3ccccc3NC(=O)c3ccc(C)cc3)cc1)CC2
20 nM | COc1cc2c(cc1OC)CN(CCc1ccc(/N=N/c3ccccc3NC(=O)c3ccccc3[N+](=O)[O-])cc1)CC2
120 nM | COc1cc2c(cc1OC)CN(CCc1ccc(/N=N/c3ccccc3NC(=O)c3ccc([N+](=O)[O-])cc3)cc1)CC2
50 nM | COc1cc2c(cc1OC)CN(CCc1ccc(/N=N/c3ccccc3NC(=O)c3cccc([N+](=O)[O-])c3)cc1)CC2
32 nM | COc1cc2c(cc1OC)CN(CCc1ccc(/N=N/c3ccccc3NC(=O)c3ccccc3Cl)cc1)CC2
83 nM | COc1cc2c(cc1OC)CN(CCc1ccc(/N=N/c3ccccc3NC(=O)c3ccc(Cl)cc3)cc1)CC2
43 nM | COc1cc2c(cc1OC)CN(CCc1ccc(/N=N/c3ccccc3NC(=O)c3cccc(Cl)c3)cc1)CC2
105 nM | COc1cc2c(cc1OC)CN(CCc1ccc(/N=N/c3ccccc3NC(=O)c3ccc(C(C)(C)C)cc3)cc1)CC2
92 nM | COc1cc2c(cc1OC)CN(CCc1ccc(NC(=O)c3ccccc3/N=N/c3ccccc3)cc1)CC2
275 nM | COc1ccccc1/N=N/c1ccccc1C(=O)Nc1ccc(CCN2CCc3cc(OC)c(OC)cc3C2)cc1
84 nM | COc1cc2c(cc1OC)CN(CCc1ccc(NC(=O)c3ccccc3/N=N/c3cccc(Cl)c3)cc1)CC2
82 nM | COc1cc2c(cc1OC)CN(CCc1ccc(NC(=O)c3ccccc3/N=N/c3ccc(Cl)cc3)cc1)CC2
68 nM | COc1cc2c(cc1OC)CN(CCc1ccc(NC(=O)c3ccccc3/N=N/c3ccc(C)cc3)cc1)CC2
34 nM | COc1ccc(C(=O)Nc2ccccc2C(=O)Nc2ccc(CCN3CCc4cc(OC)c(OC)cc4C3)cc2)cc1OC [N-(2-(4-(2-(6,7-dimethoxy-3,4-dihydroisoquinolin-2(1H)-yl)ethyl)phenylcarbamoyl)phenyl)-3,4-dimethoxybenzamide]

Source: BindingDB's records for PubMed 39369480 (Xuzhou Medical University)
